Consider one compound from patent publication US5491152A, “Derivatives of cyclic ethers and sulfides for the treatment of atherosclerosis” (The Du Pont Merck Pharmaceutical Company, priority 1994, dated 1996).

The test system of one assay is ACAT. Briefly: Systemic availability of ACAT inhibitors (Ex Vivo Assay): ACAT activity in livers from orally dosed rats. On the set-up: species or system rat (male (CD) Sprague Dawley). The note with it: rat, oral gavage 10 mg/kg, days 1-3, livers taken 3 h after last dose; given as number. How it is done: B. Assay for the Systemic Availability of ACAT Inhibitors (Ex Vivo Assay)
The inhibition of ACAT activity in livers obtained from rats orally dosed with an inhibitor was used as a determination of the compound's systemic availability. The ability of ACAT inhibitors to affect cholesterol esterification in livers obtained from dosed animals was tested as follows. This assay is also referred to herein as the Ex Vivo Assay. Male (CD) Sprague Dawley rats weighing from 190-210 g were fed purina lab chow ad libitum. Rats, three per group, were orally gavaged with 10 mg/kg of active ACAT inhibitor. The compounds were dissolved in ethanol (10% of final volume); a PEG solution (80 propylene glycol:20 polyethylene glycol 400, w:w) was added and the compound was mixed completely prior to dosing. A control group received the dosing vehicle alone. The animals were dosed once on Day 1 (am), twice on Day 2 (am and pm) and once on the morning of Day 3. Three hours after the last dose animals were euthanized using CO2. Livers were perfused with a 0.25M sucrose solution, excised, and frozen. Livers were thawed and resuspended in buffer (2 mL/g, 0.1M Phosphate, pH 7.4, 1.0 mM glutathione, 0.5 mM EDTA, 20 μM leupeptin, 60 μM benzamidine, and 0.25M sucrose). The samples were homogenized and post nuclear microsomes were obtained by centrifugation: 1.000× g for 5 min. and the resulting supernatant, 100,000× g for 1 hr. Microsomes were resuspended in phosphate buffer to approximately 25 mg/mL and frozen at -70° C. until assayed for ACAT activity.
ACAT assays contained in a final volume of 200 μl:100 ug microsomal protein, 75 μM ^14 C-oleoyl-CoA (10,000 dpm/nmol), 0.75 mg bovine serum albumin, 0.1M phosphate buffer, pH 7.4, and 1 mM glutathione. All components, except the oleoyl-CoA, were preincubated for 15 min at 37° C. prior to the initiation of the reaction by the addition of oleoyl-CoA. The assay was terminated after 10 min and ACAT activity determined as described in section A above. The average specific activity of ACAT in the vehicle control group was 661 +/- 64 pmol/min/mg (SEM). The data (% inhibition) are expressed as 100 minus the % ACAT activity in livers from dosed animals versus those from a vehicle control group.

The target of assay [1] is T1, Acyl-CoA: Cholesterol Acyltransferase (ACAT) (Rattus norvegicus, UniProt Q7TQM4).
T1 construct: Microsomes were obtained by differential centrifugation; from tissue; host or cells: liver microsomes of male Sprague Dawley rats
T1 sequence (Q7TQM4 1-524): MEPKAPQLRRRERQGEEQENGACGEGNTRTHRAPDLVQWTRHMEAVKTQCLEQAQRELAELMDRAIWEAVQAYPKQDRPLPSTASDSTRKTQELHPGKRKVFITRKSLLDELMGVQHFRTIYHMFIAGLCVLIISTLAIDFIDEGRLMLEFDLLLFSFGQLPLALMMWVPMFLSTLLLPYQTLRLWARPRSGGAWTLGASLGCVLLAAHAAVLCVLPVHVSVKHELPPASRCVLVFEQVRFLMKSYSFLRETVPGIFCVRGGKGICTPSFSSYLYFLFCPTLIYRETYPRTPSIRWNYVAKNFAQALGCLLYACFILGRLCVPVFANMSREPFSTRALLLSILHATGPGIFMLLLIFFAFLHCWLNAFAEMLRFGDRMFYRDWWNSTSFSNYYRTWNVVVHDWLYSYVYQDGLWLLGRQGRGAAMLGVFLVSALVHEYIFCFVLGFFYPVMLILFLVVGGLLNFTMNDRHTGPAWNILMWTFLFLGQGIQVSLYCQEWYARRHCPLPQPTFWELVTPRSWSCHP
In words: Inhibition of Acyl-CoA: Cholesterol Acyltransferase (ACAT) in hepatic microsomes (In Vitro Assay). Format: biochemical, rat (male Sprague Dawley). The note with it: 75 μM 14C-oleoyl-CoA, pH 7.4, 37° C., 15 min preincubation, 10 min. The protocol: A. Assay of the Inhibition of Acyl-CoA: Cholesterol Acyltransferase (ACAT) in Hepatic Microsomes (In Vitro Assay)
The ability of the compounds to inhibit ACAT, the enzyme responsible for the intracellular synthesis of cholesteryl esters, was tested as follows. Male Sprague Dawley rats weighing 150-300 g, were fed rat chow ad libitum. The animals were fasted for twenty-four hours prior to being euthanized by CO2. The livers were perfused in situ with 50 ml of cold 0.25 sucrose, excised, and homogenized in three volumes of 0.1M phosphate buffer, pH 7.4, that contained 0.5 mM EDTA (ethylenediamine-tetraacetic acid), 1.0 mM glutathione, 0.25M sucrose and 20 mM leupeptin. Microsomes were obtained by differential centrifugation; the supernatant from an initial spin at 15,000× g for 15 minutes was centrifuged at 105,000× g for 1 hour to pellet the microsomes. The microsomes were suspended in 0.1M phosphate buffer, pH 7.4 with 1 mM GSH and stored at -70° C. Microsomes were used within one month of preparation.
The control assay in a final volume of 200 μl consisted of 200 μg of microsomal protein, 75 μM ^14 C-oleoyl-CoA (10,000 dpm/nmol) in 0.1M phosphate, pH 7.4, that contained 1 mM glutathione. Compounds were added in 5 μl of DMSO (dimethyl sulfoxide) and additional controls were run with DMSO only. All components, except the oleoyl-CoA, were preincubated for 15 min. at 37° C. prior to the initiation of the reaction by the addition of oleoyl-CoA. The assay was terminated after 10 min by the addition of 4 ml of chloroform:methanol (2:1, v/v). 20,000 dpm of ^3 H-cholesteryl oleate and 10 μg of unlabeled cholesteryl oleate and oleic acid were added as an internal standard and carriers, respectively. After allowing 10 min. for lipid extraction, the samples were centrifuged at 1,000× g for 10 min to separate the solvent layers. The chloroform layer containing the neutral lipids was spotted onto a Baker SI250-Pa silica gel TLC plate and the plate developed using a hexane:diethyl ether:acetic acid (170:30:1) v/v/v) mobile phase. The lipids were visualized by their interaction with iodine vapor and the cholesteryl ester spot was scraped into a scintillation vial and counted. The specific activity of ACAT in the control incubation averaged 260 pmol/min/mg microsomal protein. The data obtained are expressed as the concentration at which ACAT activity is inhibited by 50% (IC50).

Structures are written as SMILES. pIC50: −log10 of the molar value.

As for `CCCC1C=CC(CCC)C(C(=O)Nc2c(SC)cc(C)nc2SC)S1` (centres unmarked) [Example 140], the “Inhibition of ACAT, Ex Vivo Assay (% inhibition)” value with ACAT was under 10%. In addition, the pIC50 in assay [1] is over 5.70.
